Consider 19 molecules from US12643887B2, “Heterocyclic derivatives with cardiomyocyte proliferation activity for treatment of heart diseases” (Tongji University, priority 2019, dated 2026).

In assay [1] the test system is Neonatal Rat Ventricular Myocytes (NRVMs). The assay can be described thus: Myocyte proliferation assay (EdU assay) in neonatal rat ventricular myocytes. Format: cell-based. The settings on record: growth relative to blank myocyte growth without compound added; for Avg 1 uM (average myocyte proliferation): compound 1 uM; for Avg 3 uM (average myocyte proliferation): compound 3 uM; for Avg 10 uM (average myocyte proliferation): compound 10 uM. In outline: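 After 36 h compound exposure (1, 3 or 10 uM in 6% FBS/ITS DMEM, following 24 h low-serum culture), NRVMs were pulsed with EdU for 12 h. Proliferation scored by automated confocal imaging of EdU click chemistry, ab8295 immunostaining and DAPI nuclei in fixed cultures.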

The next assay addresses T1, human DYRK1A (Homo sapiens, UniProt Q13627).
T1 construct: Recombinant full-length DYRK1A (expressed in E. Coli cells with an N-terminal GST tag); GST (N); purchased SignalChem D09-10G; host or cells: E. coli
The assay can be described thus: DYRK1A enzyme assay (ADP-Glo). Format: biochemical. Summed up: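 ADP formed is quantified by luciferase luminescence (ADP-Glo) after a 60-minute, 25 °C reaction with 60 μM ATP and 20 μM DYRKtide peptide. Enzyme: 3 nM recombinant N-terminal GST DYRK1A, given 30 min compound preincubation in Tris pH 7.5/MgCl2/BSA/DTT buffer; % inhibition versus plate controls, four-parameter IC50.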
On the technique in general: ADP-Glo turns the ADP formed in a reaction into a luminescent signal.

Setting [2] is: ADP-Glo, ATP 60 μM, read-out: DYRK1A IC50.

Like-named read-outs stand apart in the source and are kept apart here.

In general, IC50 refers to the concentration at which inhibition is half-maximal. With `CCN(C1=N/C(=C\c2ccc3c(c2)OCO3)C(=O)N1)c1ccccc1` [Example 4, (Z)-5-(benzo[d][1,3]dioxol-5-ylmethylene)-2-(ethyl(phenyl)amino)-3,5-dihydro-4H-imidazol-4-one], in assay [1], the “Avg 1 uM (average myocyte proliferation)” value is “** (10%-50%)”, the “Avg 3 uM (average myocyte proliferation)” value is recorded as “** (10%-50%)” and the “Avg 10 uM (average myocyte proliferation)” value is “** (10%-50%)”. The IC50 at human DYRK1A (setting [2]) was 100 to 1000 nM.
As to `CC(=O)N(C1=N/C(=C\c2ccc3c(c2)OCO3)C(=O)N1)c1ccccc1` [Example 5, (Z)—N-(4-(benzo[d][1,3]dioxol-5-ylmethylene)-5-oxo-4,5-dihydro-1H-imidazol-2-yl)-N-phenylacetamide], in assay [1], the “Avg 1 uM (average myocyte proliferation)” value is “** (10%-50%)”, the “Avg 3 uM (average myocyte proliferation)” value is on record as “** (10%-50%)” and the “Avg 10 uM (average myocyte proliferation)” value is reported as “*** (>50%)”. In addition, the IC50 against human DYRK1A is under 100 nM.
With `CN(C1=N/C(=C\c2ccc3ncccc3c2)C(=O)N1)c1ccc2ncsc2c1` [Example 85, (Z)-2-(benzo[d]thiazol-6-yl(methyl)amino)-5-(quinolin-6-ylmethylene)-3,5-dihydro-4H-imidazol-4-one], in assay [1], the “Avg 1 uM (average myocyte proliferation)” value is “* (<10% growth relative to blank myocyte growth without compound added.)” and the “Avg 3 uM (average myocyte proliferation)” value is on record as “** (10%-50%)”. Further, the IC50 at human DYRK1A (setting [2]) was 100 to 1000 nM.
For `CN(C1=N/C(=C\c2ccc3ncsc3c2)C(=O)N1)c1ccc2c(c1)ncn2C` [Example 86, (Z)-5-(benzo[d]thiazol-6-ylmethylene)-2-(methyl(1-methyl-1H-benzo[d]imidazol-5-yl)amino)-3,5-dihydro-4H-imidazol-4-one] the same measures were “** (10%-50%)”, “** (10%-50%)” and 1000 to 10000 nM.
As to `CN(C1=N/C(=C\c2ccc3[nH]ccc3c2)C(=O)N1)c1ccc2ncsc2c1` [Example 87, (Z)-5-((1H-indol-5-yl)methylene)-2-(benzo[d]thiazol-6-yl(methyl)amino)-3,5-dihydro-4H-imidazol-4-one], in assay [1], the “Avg 1 uM (average myocyte proliferation)” value is on record as “** (10%-50%)” and the “Avg 3 uM (average myocyte proliferation)” value is on record as “** (10%-50%)”. Further, the 50% inhibitory concentration (IC50) at human DYRK1A (setting [2]) was over 10000 nM.
On to `CN1C(=O)/C(=C/c2ccc3ncsc3c2)N=C1Nc1ccc2ncsc2c1` [Example 88, (Z)-2-(benzo[d]thiazol-6-ylamino)-5-(benzo[d]thiazol-6-ylmethylene)-3-methyl-3,5-dihydro-4H-imidazol-4-one], for which, in assay [1], the “Avg 1 uM (average myocyte proliferation)” value is given as “* (<10% growth relative to blank myocyte growth without compound added.)” and the “Avg 3 uM (average myocyte proliferation)” value is “* (<10% growth relative to blank myocyte growth without compound added.)”. Also, on human DYRK1A (setting [2]), the IC50 is under 100 nM.
For the molecule `COCCN(C1=N/C(=C\c2ccc3ncsc3c2)C(=O)N1)c1ccc2ncsc2c1` [Example 89, (Z)-2-(benzo[d]thiazol-6-yl(2-methoxyethyl)amino)-5-(benzo[d]thiazol-6-ylmethylene)-3,5-dihydro-4H-imidazol-4-one], in assay [1], the “Avg 1 uM (average myocyte proliferation)” value is on record as “** (10%-50%)” and the “Avg 3 uM (average myocyte proliferation)” value was “* (<10% growth relative to blank myocyte growth without compound added.)”. In addition, the IC50 on human DYRK1A (setting [2]) lay in the range of 100 to 1000 nM.
With `Cc1nc2ccc(NC3=N/C(=C\c4ccc5ncsc5c4)C(=O)N3)cc2s1` [Example 90, (Z)-5-(benzo[d]thiazol-6-ylmethylene)-2-((2-methylbenzo[d]thiazol-6-yl)amino)-3,5-dihydro-4H-imidazol-4-one], in assay [1], the “Avg 1 uM (average myocyte proliferation)” value is recorded as “** (10%-50%)” and the “Avg 3 uM (average myocyte proliferation)” value was “** (10%-50%)”. Moreover, the IC50 on human DYRK1A (setting [2]) is under 100 nM.
In the case of `CC(=O)N(C1=N/C(=C\c2ccc3ncsc3c2)C(=O)N1)c1ccc2ncsc2c1` [Example 91, (Z)—N-(benzo[d]thiazol-6-yl)-N-(4-(benzo[d]thiazol-6-ylmethylene)-5-oxo-4,5-dihydro-1H-imidazol-2-yl)acetamide], in assay [1], the “Avg 1 uM (average myocyte proliferation)” value is reported as “* (<10% growth relative to blank myocyte growth without compound added.)” and the “Avg 3 uM (average myocyte proliferation)” value is reported as “* (<10% growth relative to blank myocyte growth without compound added.)”. Also, on human DYRK1A (setting [2]), the IC50 was under 100 nM.
On to `O=C1NC(Nc2ccc3ncsc3c2)=N/C1=C\c1cncs1` [Example 92, (Z)-2-(benzo[d]thiazol-6-ylamino)-5-(thiazol-5-ylmethylene)-3,5-dihydro-4H-imidazol-4-one], for which, in assay [1], the “Avg 1 uM (average myocyte proliferation)” value is “* (<10% growth relative to blank myocyte growth without compound added.)” and the “Avg 3 uM (average myocyte proliferation)” value was “* (<10% growth relative to blank myocyte growth without compound added.)”. Besides, the IC50 at human DYRK1A (setting [2]) lay in the range of 100 to 1000 nM.
Regarding `Cn1cnc2ccc(NC3=N/C(=C\c4ccc5ncsc5c4)C(=O)N3)cc21` [Example 93, (Z)-5-(benzo[d]thiazol-6-ylmethylene)-2-((1-methyl-1H-benzo[d]imidazol-6-yl)amino)-3,5-dihydro-4H-imidazol-4-one], in assay [1], the “Avg 1 uM (average myocyte proliferation)” value is given as “* (<10% growth relative to blank myocyte growth without compound added.)” and the “Avg 3 uM (average myocyte proliferation)” value was “** (10%-50%)”. Further, at human DYRK1A (setting [2]), the IC50 was under 100 nM.
On to `O=C1NC(Nc2ccc3ncsc3c2)=N/C1=C\c1ccc2nccnc2c1` [Example 94, (Z)-2-(benzo[d]thiazol-6-ylamino)-5-(quinoxalin-6-ylmethylene)-3,5-dihydro-4H-imidazol-4-one], for which, in assay [1], the “Avg 1 uM (average myocyte proliferation)” value is on record as “* (<10% growth relative to blank myocyte growth without compound added.)” and the “Avg 3 uM (average myocyte proliferation)” value was “* (<10% growth relative to blank myocyte growth without compound added.)”.
For `O=C1NC(Nc2ccc3ncsc3c2)=N/C1=C\c1ccc2cn[nH]c2c1` [Example 95, (Z)-5-((1H-indazol-6-yl)methylene)-2-(benzo[d]thiazol-6-ylamino)-3,5-dihydro-4H-imidazol-4-one], in assay [1], the “Avg 1 uM (average myocyte proliferation)” value is reported as “* (<10% growth relative to blank myocyte growth without compound added.)” and the “Avg 3 uM (average myocyte proliferation)” value was “* (<10% growth relative to blank myocyte growth without compound added.)”. Also, the IC50 on human DYRK1A (setting [2]) was over 10000 nM.
As for `O=C1NC(=S)N/C1=C\c1ccc2sccc2c1` [Example 96, (Z)-5-(benzo[b]thiophen-5-ylmethylene)-2-thioxoimidazolidin-4-one], in assay [1], the “Avg 1 uM (average myocyte proliferation)” value was “* (<10% growth relative to blank myocyte growth without compound added.)” and the “Avg 3 uM (average myocyte proliferation)” value was “* (<10% growth relative to blank myocyte growth without compound added.)”. For the same molecule, the IC50 on human DYRK1A (setting [2]) is over 10000 nM.
Regarding `O=C1NC(Nc2ccc3nc[nH]c3c2)=N/C1=C\c1ccc2ncsc2c1` [Example 97, (Z)-2-((1H-benzo[d]imidazol-6-yl)amino)-5-(benzo[d]thiazol-6-ylmethylene)-3,5-dihydro-4H-imidazol-4-one], in assay [1], the “Avg 1 uM (average myocyte proliferation)” value is “* (<10% growth relative to blank myocyte growth without compound added.)” and the “Avg 3 uM (average myocyte proliferation)” value is reported as “* (<10% growth relative to blank myocyte growth without compound added.)”.
`Nc1ccc(NC2=N/C(=C\c3ccc4ncsc4c3)C(=O)N2)cc1` [Example 98, (Z)-2-((4-aminophenyl)amino)-5-(benzo[d]thiazol-6-ylmethylene)-3,5-dihydro-4H-imidazol-4-one]: in assay [1], the “Avg 1 uM (average myocyte proliferation)” value is “** (10%-50%)” and the “Avg 3 uM (average myocyte proliferation)” value is on record as “** (10%-50%)”.
For the molecule `O=C1NC(N(Cc2ccccc2)c2ccc3ncsc3c2)=N/C1=C\c1ccc2ncsc2c1` [Example 99, (Z)-2-(benzo[d]thiazol-6-yl(benzyl)amino)-5-(benzo[d]thiazol-6-ylmethylene)-3,5-dihydro-4H-imidazol-4-one], in assay [1], the “Avg 1 uM (average myocyte proliferation)” value is given as “** (10%-50%)” and the “Avg 3 uM (average myocyte proliferation)” value is on record as “* (<10% growth relative to blank myocyte growth without compound added.)”. In addition, the half-inhibitory concentration (IC50) at human DYRK1A (setting [2]) fell in the range of 100 to 1000 nM.
On to `CC(C)Nc1nc2ccc(NC3=N/C(=C\c4ccc5ncsc5c4)C(=O)N3)cc2s1` [Example 100, (Z)-5-(benzo[d]thiazol-6-ylmethylene)-2-((2-(isopropylamino)benzo[d]thiazol-6-yl)amino)-3,5-dihydro-4H-imidazol-4-one], for which, in assay [1], the “Avg 1 uM (average myocyte proliferation)” value is on record as “** (10%-50%)” and the “Avg 3 uM (average myocyte proliferation)” value is “** (10%-50%)”. Moreover, on human DYRK1A (setting [2]), the IC50 fell in the range of 100 to 1000 nM.
Consider `O=C1NC(Nc2ccc3sccc3c2)=N/C1=C\c1ccc2ncsc2c1` [Example 101, (Z)-2-(benzo[b]thiophen-5-ylamino)-5-(benzo[d]thiazol-6-ylmethylene)-3,5-dihydro-4H-imidazol-4-one], for which, in assay [1], the “Avg 1 uM (average myocyte proliferation)” value is recorded as “** (10%-50%)” and the “Avg 3 uM (average myocyte proliferation)” value was “* (<10% growth relative to blank myocyte growth without compound added.)”.
